Measurements published in US7109175B1, “Specific steady-state R-type CA2+ channel blockers and use thereof” (Universite de Sherbrooke, priority 2000, dated 2006).
“Also recorded” adds a separate entry of the source.

Assays:
L-type Ca^2+ current = assay: Whole-cell voltage clamp, L-type Ca2+ current in heart cells of chick embryos; assay type: cell-based; details: for overall effect on L-type Ca2+ channel: summary in words
Method: Single cells of different types in culture were prepared from biopsies of human, chick and rabbit. Known and accepted methods for the isolation of fast Na^+ current, T, L and R-type Ca^2+ channels as well as delayed outward K^+ current were used (Bkaily 1994, supra).
The compounds to be tested are added to the appropriate extracellular solution after recording a stable ionic current or normal steady-state level of […]. The effect of different concentrations of compounds are tested on the different type of current and [Ca]i of the different cell types. The effect of each concentration of the compounds in function of the time of exposure are then determined. Once the steady-state effect is reached, the second concentration is added, etc.
In another series of experiments (n=5), the effect of different concentrations of MV8608 (10^−11 to 10^−6M) were tested on the L-type ICa of heart cells of chick embryos using the whole-cell and experimental conditions and protocols described elsewhere by the inventors (Bkaily G. et al., 1993, supra). As for the T-type ICa, the L-type ICa was not affected by 10^−11 to 10^−10M MV8608.
In another series of experiments (n=4), we tested the effect of MV8612 on the L-type Ca^2+ current (ICa) in chick embryonic heart cells using the whole-cell voltage clamp technique referred to above. Superfusion with 10^−9M of MV8612 decreased ICa amplitude by 10% and increasing the concentration of the compound up to 10^−8M further decreased the current amplitude by 25%. Higher concentration of MV8612 (10^−7M) decreased the ICa amplitude by 62%.

R-type Ca^2+ channel [1] = assay: Fura-2 [Ca]i, human aortic vascular smooth muscle cells (cell line and freshly isolated); assay type: cell-based; details: for sustained increase of [Ca]i induced by high PAF: PAF 10^−7M
Excerpt: (§1) This sustained increase of Ca^2+ induced by depolarization of the cell membrane or hormones such as PAF, ET-1 and bradykinin is due to the increase of Ca^2+ influx through the R-type Ca^2+ channels at the sarcolemmal membrane and/or the nuclear membrane (Bkaily G., 1994, supra; 1996, supra; 1997a–d, supra). Using Ca^2+ fluorescence probes Fura-2 or Fluo-3 and 2 and three-dimension Ca^2+ imaging techniques (Bkaily G., 1994, supra; 1996, supra; 1997a–d, supra), the effect of hormones and drugs could be easily tested. These two methods are used with single cells of different types as described above.
(§2) In another series of experiments we tested the effect of MV8608 (10^−9M) on R-type Ca^2+ channels stimulation-induced sustained increase of total intracellular Ca^2+ by sustained depolarization (FIGS. 15 to 19), by PAF (10^−9M) (FIGS. 16 to 19 and 21 to 22), by ET-1 (10^−9M) (FIGS. 16 and 19) and bradykinin (BK, 10^−6M) (FIGS. 20 and 21), in embryonic chick heart cells (FIGS. 15, 16, 19 and 20), 19-week-old human fetal heart cells (FIGS. 15, 17, 18 and 20), rabbit aortic vascular smooth muscle (VSM) cells (FIGS. 20 and 21), human aortic VSM cell-line (FIG. 23) and freshly isolated (FIG. 22) as well as in freshly isolated aortic endothelial cells (FIG. 22).
In some experiments, the stimulation of the R-type Ca^2+ channel was elevated by increasing the concentration of PAF from 10^−9M up to 10^−7. […] Only a concentration of 10^−6M of MV8608 was able to block the high PAF effect on the sustained increase of [Ca]i (FIG. 23).
(§3) Using Fura-2 [Ca]i measurement technique, in one series of experiments we tested the effect of MV8612 (10^−9M) on the stimulation of R-type Ca^2+-induced sustained increase of [Ca]i by sustained depolarization (FIGS. 26 and 27), PAF (10^−9M, FIG. 34) and ET-1 (FIGS. 33 and 34).

R-type Ca^2+ channel [2] = assay: Fura-2 [Ca]i, embryonic chick heart cells; assay type: cell-based; details: 10^−9M, sustained depolarization (KCl 30 mM), PAF 10^−9M, ET-1 10^−9M
Excerpt: as §1
as §2, with “22). […]” for “22).”

[3] = tested on: writhing response in mice; assay: Writhing response in mice (acetic acid, acetylcholine, kaolin); assay type: in vivo; details: for acetic acid, acetylcholine and kaolin-induced writhing response: MV 8612 0.25 to 2.5, MV 8608 2.7, i.p., 30 min prior
Excerpt: The antinociceptive actions of compound MV 8612 and MV 8608 were investigated in different models of nociception in mice as reported previously (Vaz et al., 1996, J. Pharmacol. Exp. Ther. 278:304–312).

rat paw oedema = assay: Rat paw oedema; assay type: in vivo; details: for des-Arg^9-bradykinin-induced paw oedema: 10 and 100 nmol/paw co-injected, rats treated with LPS
Method: In this experiment (N=5 to 6 animals per group), the anti-oedemagenic action of compounds MV 8608 and MV 8612 against bradykinin and several mediators which are reported to be involved in the inflammatory processes, was evaluated. The procedures used to perform these experiments have been reported elsewhere (Neves et al., 1993, Eur. J. Pharmacol. 243:213–219; Campos et al., 1995, Br. J. Pharmacol. 114:1005–1013; Campos et al., 1996, Br. J. Pharmacol. 117:793–798; Eur. J. Pharmacol. 316:227–286). […] As reported previously, in rats treated […] prior to a systemic injection of LPS, both B1 and B2 kinin selective agonists caused marked oedema formation (FIGS. 37C and D (Campos et al., 1996, supra)).

R-type Ca^2+ channel [4] = assay: Fura-2 total [Ca]i, R-type channel stimulation-induced sustained increase, pooled cell types; assay type: cell-based, chick, human, rabbit
Excerpt: as §1, §2, §3

[5] = 100 nmol/paw, rats treated 30 days prior

With `C[C@]12CC[C@H](O)CC1=CC[C@@H]1[C@@H]2CC[C@]2(C)[C@H]3[C@@H]4OC[C@H]3O[C@@H](O)[C@]12O4` [MV8608, (15R, 16R, 20S)-14, 16:15,20:16,21-triepoxi-15,16-seco 14β, 17α-pregn-5-ene-3β, 15-diol] the “change of L-type ICa amplitude effect at higher concentration” value (L-type Ca^2+ current; 5×10^−7M) was “further slight increase”, the “decrease of L-type ICa amplitude” value (L-type Ca^2+ current; 10^−9M) was 10% and the “effect on L-type ICa” value (L-type Ca^2+ current; 10^−11 to 10^−10M) was “not affected”. For the same compound, the “overall effect on L-type Ca2+ channel” value (L-type Ca^2+ current) was “very weak depressor; also recorded: relative weak depressing effect”, the “PAF induced sustained increase of [Ca]i” value (R-type Ca^2+ channel [1]; 10^−9M, PAF 10^−9M, freshly isolated human aortic VSM cells) was “blockade” and the “sustained increase of [Ca]i induced by high PAF” value (R-type Ca^2+ channel [1]; MV8608 10^−6M, human aortic VSM cell line) was “able to block; also recorded: blockade”. The “sustained increase of [Ca]i induced by high PAF” value (R-type Ca^2+ channel [1]; MV8608 10^−9M) was “failed to significantly decrease”, the “sustained increase of [Ca]i” value (R-type Ca^2+ channel [2]) was “blockade” and the “acetic acid, acetylcholine and kaolin-induced writhing response” value [3] was “only partial or even no antinociceptive action”. The PAF-induced paw oedema (rat paw oedema; 100 nmol/paw) was “consistently inhibited”, the PGE2-induced paw oedema (rat paw oedema; 100 nmol/paw) was “partially inhibited” and the “substance P-induced paw oedema” value (rat paw oedema; 100 nmol/paw) was “unaffected”. The bradykinin-induced paw oedema (rat paw oedema; [5]) was “significantly inhibited”, the “des-Arg^9-BK-induced paw oedema” value (rat paw oedema; [5]) was “significantly inhibited” and the carrageenan-induced paw oedema (rat paw oedema; 10 and 100 nmol/paw) was “significantly prevented”. The dextran-induced paw oedema (rat paw oedema; 10 and 100 nmol/paw) was “significantly prevented”, the histamine-induced paw oedema (rat paw oedema; 10 and 100 nmol/paw) was “significantly prevented” and the “potentiation of paw oedema by low dose des-Arg^9-BK plus PAF” value (rat paw oedema; 10 and 100 nmol/paw) was “prevented the potentiation”. For the same compound, the “potentiation of paw oedema by low dose des-Arg^9-BK plus PGE2” value (rat paw oedema; 10 and 100 nmol/paw) was “prevented the potentiation”, the serotonin-induced paw oedema (rat paw oedema; 10 and 100 nmol/paw) was “significantly prevented” and the “des-Arg^9-bradykinin-induced paw oedema” value (rat paw oedema) was “dose-related inhibition”. The ovalbumin-induced paw oedema (rat paw oedema; 10 and 100 nmol/paw, actively sensitised animals) was “inhibited significantly”, the bradykinin-induced hindpaw oedema (rat paw oedema; 10 and 100 nmol/paw, animals treated with LPS) was “no significant effect” and the “time to complete block of sustained increase of [Ca]i” value (R-type Ca^2+ channel [4]; 10^−9M) was 4 to 5 min. For the same compound, the “sustained increase of [Ca]i via activation of R-type Ca2+ channel” value (R-type Ca^2+ channel [4]; 10^−9M, sustained depolarization, ET-1 10^−9M, PAF 10^−9M, BK 10^−6M) was “completely blocked; also recorded: blockade” and the “block of R-type Ca2+ channel across cell types” value (R-type Ca^2+ channel [4]; incl. MG63, FAOS-2, human VSM, endothelial cells, T-lymphocytes, platelets, AOSMC-9) was “blocked the R-type Ca^2+ channel in all cell types used”.

In the case of `COC1CC(OC2C(C)OC(O[C@H]3CC[C@@]4(C)C(=CC[C@@H]5[C@@H]4CC[C@]4(C)[C@H]6[C@@H]7OC[C@H]6O[C@@H](O)[C@]54O7)C3)CC2OC)OC(C)C1OC1CC(OC)C(OC2CC(OC)C(OC3OC(C)C(OC(C)=O)C(OC)C3OC(C)=O)C(C)O2)C(C)O1` (some centres unmarked) [MV8612], the “decrease of L-type ICa amplitude” value (L-type Ca^2+ current; 10^−7M) is reported as 62%, the “decrease of L-type ICa amplitude” value (L-type Ca^2+ current; 10^−8M) is reported as 25% and the “decrease of L-type ICa amplitude” value (L-type Ca^2+ current; 10^−9M) is reported as 10%. For the same compound, the “overall effect on L-type Ca2+ channel” value (L-type Ca^2+ current) was “more potent L-type Ca^2+ channel antagonist properties than that of MV8608”, the “prevention of sustained increase of [Ca]i” value (R-type Ca^2+ channel [1]; 10^−8M, KCl 30 mM and PAF 10^−7M, human aortic VSM cell line) was “found to prevent; also recorded: preventive effect” and the “sustained increase of [Ca]i” value (R-type Ca^2+ channel [2]) was “blockade”. For the same compound, the “acetic acid, acetylcholine and kaolin-induced writhing response” value [3] was “dose-dependent inhibition”, the “acetic acid-induced writhes, i.c.v.” value ([3]; MV 8612 4.2 to 42 nmol/site, morphine 0.26 to 13 nmol/site) was “dose-related antinociception” and the “ID50 ACETIC ACID” value ([3]; i.p., mice, acetic acid-induced writhes) was 2.4 (1.9–2.6) μmol/kg. For the same compound, the “ID50 ACETYLCHOLINE” value ([3]; i.p., mice, acetylcholine-induced writhes) was 2.2 (2.0–2.3) μmol/kg, the “ID50 KAOLIN” value ([3]; i.p., mice, kaolin-induced writhes) was 0.4 (0.3–0.6) μmol/kg and the “potency versus morphine, i.c.v., acetic acid-induced writhes” value ([3]; less potent than morphine) was “about 12 fold”. For the same compound, the “potency against kaolin-induced pain versus the other writhing models” value ([3]; more potent) was “about 2 fold”, the “potency versus morphine and indomethacin, kaolin-induced writhes” value ([3]; more potent) was “about 2 fold” and the “oedema by bradykinin plus PAF” value (rat paw oedema; 10 nmol/paw) was “did not interfere”. The “oedema by low dose bradykinin plus PGE2” value (rat paw oedema; 10 nmol/paw) was “significantly inhibited”, the “oedema by low dose bradykinin plus calcitonin gene related peptide” value (rat paw oedema; 10 nmol/paw) was “significantly inhibited” and the “oedema by low dose bradykinin plus prostacyclin” value (rat paw oedema; 10 nmol/paw) was “significantly inhibited”. For the same compound, the PAF-mediated paw oedema (rat paw oedema; 10 and 100 nmol/paw) was “only a minimal inhibition”, the PGE2-induced paw oedema (rat paw oedema; 10 and 100 nmol/paw) was “dose-dependently inhibited” and the bradykinin-induced paw oedema (rat paw oedema; 10 and 100 nmol/paw) was “significantly inhibited”. For the same compound, the carrageenan-induced paw oedema (rat paw oedema; 10 and 100 nmol/paw) was “dose-dependently inhibited”, the “substance P-mediated paw oedema” value (rat paw oedema; 10 and 100 nmol/paw) was “only a minimal inhibition” and the “tyr^8-bradykinin-induced paw oedema” value (rat paw oedema; 10 and 100 nmol/paw) was “significantly inhibited”. The “des-Arg^9-bradykinin-induced paw oedema” value (rat paw oedema) was “no significant effect”, the “bradykinin-induced oedema in animals treated with cyprohetadine or compound 48/80” value (rat paw oedema; intraperitoneal injection (FIG. 44)) was “dose-related inhibition was still observed” and the “duration of inhibition of bradykinin oedema” value (rat paw oedema; subplantar) was “at least 2 h”. For the same compound, the “onset of inhibition of bradykinin oedema” value (rat paw oedema; subplantar) was 30 min, the “bradykinin oedema in controlateral paw treated with saline” value (rat paw oedema; systemic effect of subplantar injection) was “significant anti-oedemagenic action” and the “sustained increase of [Ca]i induced by sustained depolarization and hormones” value (R-type Ca^2+ channel [4]; 10^−9M, PAF 10^−9M, ET-1) was “significantly decreased”.
